For six compounds, IC50 and viability, T/C results are on record in PubChem BioAssay AID2060500 (Molecular Pharmacology Branch, DTP, NCI, 2025).

Each structure is given as a SMILES string. pIC50: −log10 of the molar value. Where “and” joins values, the source holds several entries; their conditions need not be identical. Equal entries are not always repeated.

The experiment deals with 596521-263-R-J1-PDC complex spheroids, viability % of control. Kind of experiment: Anticancer human tumor 596521-263-R-J1-PDC patient-derived soft tissue sarcoma cell line growth inhibition [GQUAD]. As to conditions: for viability, T/C: stronger effect = lower value. The text has this:
DNA G-quadruplex Stabilizer Agents in Combinations in Complex Spheroids
A high-throughput screen of multi-cell type tumor spheroids was designed to identify active combinations of DNA G-quadruplex stabilizer agents and targeted small molecules. Complex spheroids include a stromal component modeled by human endothelial cells (HUVEC) and fibroblasts modeled by human mesenchymal stem cells (MSCs). The concentration ranges selected for each drug and investigational agent were based upon clinically achievable concentrations if the clinical Cmax of the agent was known.
Compounds. The drugs and investigational agents: pidnarulex (CX-5461; NSC782164), APTO-253 (NSC789042), BRACO-19 (NSC847499), peposertib (NSC802822), ceralasertib (NSC780249), elimusertib (NSC800525), camonsertib (NSC841442), AZD-1390 (NSC803789), olaparib (NSC753686), talazoparib (NSC767125), ART-558 (NSC835418), sotorasib (NSC818433), MRTX-1133 (NSC836407), SN-38 (NSC673596), topotecan (NSC609699), etoposide (NSC141540), doxorubicin (NSC123127), gemcitabine (NSC613327), 5-fluorouracil (NSC19893), paclitaxel (NSC125973), vemurafenib (NSC761431), panobinostat (NSC761190), R-306465 (JNJ-16241199; NSC773264), adavosertib (NSC754352), TP-3654 (NSC805149), carboplatin (NSC241240), KSQ-4279 (NSC840948), and staurosporine (NSC755774) were obtained from the National Cancer Institute (NCI) Developmental Therapeutics Program Chemical Repository (34). The FDA-approved anticancer drug set is available from the NCI Developmental Therapeutics Program. […] The stock solutions were prepared in dimethyl sulfoxide (DMSO, Sigma-Aldrich, St. Louis, MO, cat. D2650) at 800-fold the tested concentration and stored at -70 degrees C prior to their use. All drugs and investigational agents were tested over a range starting from a high concentration at or near the clinical Cmax and decreasing in half-log increments. If the clinical Cmax for an agent had not been determined, the highest concentration tested was 10 microM.
2.3 Cell Culture. All cells were maintained in an incubator at 37 degrees C and 5% CO2 with 95% humidity. The PDC lines were cultured according to standard operating procedures established by the NCI PDMR. All PDCs were thawed and cultured in Matrigel-coated flasks prepared with a working solution of 1X Ham's F-12 nutrient mix, without supplementation (Invitrogen, cat. 11765054), 100 U/mL penicillin-streptomycin (Invitrogen, cat. 15140122), and 2.5% Matrigel (Corning Inc., cat. 354248) for the first three passages. The 857933-349-R-J2-PDC line was cultured in 6C/Colon 1B media, which includes advanced DMEM/F-12 (Thermo Fisher Scientific, cat. 12634028), 10 mM HEPES (Thermo Fisher Scientific, cat. 15630080), 1X GlutaMAX supplement (Thermo Fisher Scientific, cat. 35050061), 0.1 mg/mL primocin (InvivoGen, cat. ant-pm-2), 10% defined fetal bovine serum, heat inactivated (HyClone Laboratories Inc., cat. SH30070.03HI), 50% L-WRN conditioned media (ATCC, cat. CRL-3276), 1.25 mM N-Acetyl-L-cysteine (Sigma-Aldrich, cat. A9165), 10 mM nicotinamide (Sigma-Aldrich, cat. N0636), 1X B-27 supplement (Thermo Fisher Scientific, cat. 17504044), 1X N-2 supplement (Thermo Fisher Scientific, cat. 17502048), 10 microM Y-27632 dihydrochloride (Tocris Bioscience, cat. 1254), and 50 ng/mL human EGF recombinant protein (Thermo Fisher Scientific, cat. PHG0311). The 485176-168-R4-J1-PDC line was cultured in Panc media, which includes all 6C/Colon 1B media components plus 100 ng/mL human FGF-10 (Thermo Fisher Scientific, cat. 100-26), 500 nM SB-431542 (Selleckchem, cat. S1067), and gastrin (Tocris, cat. 3006).
[…]

Setting [1] is: curve of first compound, second compound 0.0316 µM.
The mark [2] stands for this setting: curve of first compound, second compound 0.1 µM.
Where [3] appears, read: curve of first compound, second compound 0.316 µM.
Setting [4] is: curve of first compound, second compound 1 µM.
The mark [5] stands for this setting: curve of first compound, second compound 3.16 µM.
Where [6] appears, read: curve of first compound, second compound 10 µM.
Where [7] appears, read: second compound 0.0316 µM, first compound 0.0316 µM.
[8] abbreviates: second compound 0.0316 µM, first compound 0.1 µM.
Where [9] appears, read: second compound 0.0316 µM, first compound 0.316 µM.
The mark [10] stands for this setting: second compound 0.0316 µM, first compound 1 µM.
Setting [11] is: second compound 0.0316 µM, first compound 3.16 µM.
The mark [12] stands for this setting: second compound 0.0316 µM, first compound 10 µM.
Setting [13] is: second compound 0.1 µM, first compound 0.0316 µM.
Where [14] appears, read: second compound 0.1 µM, first compound 0.1 µM.
Setting [15] is: second compound 0.1 µM, first compound 0.316 µM.
The mark [16] stands for this setting: second compound 0.1 µM, first compound 1 µM.
Where [17] appears, read: second compound 0.1 µM, first compound 3.16 µM.
[18] abbreviates: second compound 0.1 µM, first compound 10 µM.
The mark [19] stands for this setting: second compound 0.316 µM, first compound 0.0316 µM.
Where [20] appears, read: second compound 0.316 µM, first compound 0.1 µM.
Setting [21] is: second compound 0.316 µM, first compound 0.316 µM.
Setting [22] is: second compound 0.316 µM, first compound 1 µM.
Where [23] appears, read: second compound 0.316 µM, first compound 3.16 µM.
Where [24] appears, read: second compound 0.316 µM, first compound 10 µM.
Setting [25] is: second compound 1 µM, first compound 0.0316 µM.
The mark [26] stands for this setting: second compound 1 µM, first compound 0.1 µM.
[27] abbreviates: second compound 1 µM, first compound 0.316 µM.
Where [28] appears, read: second compound 1 µM, first compound 1 µM.
Setting [29] is: second compound 1 µM, first compound 3.16 µM.
[30] abbreviates: second compound 1 µM, first compound 10 µM.
Where [31] appears, read: second compound 3.16 µM, first compound 0.0316 µM.
Where [32] appears, read: second compound 3.16 µM, first compound 0.1 µM.
[33] abbreviates: second compound 3.16 µM, first compound 0.316 µM.
[34] abbreviates: second compound 3.16 µM, first compound 1 µM.
The mark [35] stands for this setting: second compound 3.16 µM, first compound 3.16 µM.
Setting [36] is: second compound 3.16 µM, first compound 10 µM.
Where [37] appears, read: second compound 10 µM, first compound 0.0316 µM.
Setting [38] is: second compound 10 µM, first compound 0.1 µM.
[39] abbreviates: second compound 10 µM, first compound 0.316 µM.
Setting [40] is: second compound 10 µM, first compound 1 µM.
The mark [41] stands for this setting: second compound 10 µM, first compound 3.16 µM.
Setting [42] is: second compound 10 µM, first compound 10 µM.

In general, pIC50 refers to the IC50 on a negative log10 scale, so that one unit is a factor of ten. In general, viability, T/C refers to the result in the treated group divided by that in the control group, in per cent.
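Note: spheroids exposed to drugs for 7 days before viability reading.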

On to `CC1COCCN1c1cc(-c2ccnn2C)c2ccnc(-c3ccn[nH]3)c2n1` (stereo unspecified) + Cc1[nH]c2ccc(F)cc2c1-c1nc2c3cccnc3c3ncccc3c2[nH]1, for which the pIC50 under setting [1] was 6.40; the negative-log IC50 (pIC50) under setting [2] was 6.29; the pIC50 under setting [3] is 6.50; the pIC50 under setting [4] is 6.26; the pIC50 under setting [5] is 6.22; the pIC50 under setting [6] is 6.54. Further, the viability, T/C is 84.3% under setting [7]; 61.8% under setting [8]; 55.6% under setting [9]; 40.1% under setting [10]; 32.5% under setting [11]; 26% under setting [12]. The viability, T/C is, setting by setting: under setting [13], 81.3%; under setting [14], 69.5%; under setting [15], 52%; under setting [16], 41.8%; under setting [17], 37.9%; under setting [18], 23.2%. In addition, the viability, T/C was 75.9% under setting [19]; 57.2% under setting [20]; 50% under setting [21]; 43.2% under setting [22]; 31.8% under setting [23]; 25.3% under setting [24]. The viability, T/C reads like this: under setting [25], 71%; under setting [26], 62.5%; under setting [27], 57.1%; under setting [28], 43.5%; under setting [29], 34.3%; under setting [30], 26%. For the same compound, the viability, T/C was 67.3% under setting [31]; 62.4% under setting [32]; 53.2% under setting [33]; 47.8% under setting [34]; 36.3% under setting [35]; 26.1% under setting [36]. In addition, the viability, T/C is, setting by setting: under setting [37], 64.5%; under setting [38], 57%; under setting [39], 49.6%; under setting [40], 40.9%; under setting [41], 32.9%; under setting [42], 25.4%.

For the compound `CC(C)n1c(=O)n(C)c2cnc3cc(F)c(-c4ccc(OCCCN5CCCCC5)nc4)cc3c21` + CN(C)c1ccc(Nc2c3ccc(NC(=O)CCN4CCCC4)cc3nc3cc(NC(=O)CCN4CCCC4)ccc23)cc1, the pIC50 under setting [1] was less than 5.00; the pIC50 under setting [2] is less than 5.00; the pIC50 under setting [3] is less than 5.00; the pIC50 under setting [4] was less than 5.00; the pIC50 under setting [5] is less than 5.00; the negative-log IC50 (pIC50) under setting [6] was 6.05. Further, the viability, T/C runs as follows: under setting [7], 104%; under setting [8], 103%; under setting [9], 100%; under setting [10], 87.1%; under setting [11], 84.1%; under setting [12], 66.8%. The viability, T/C runs as follows: under setting [13], 104%; under setting [14], 106%; under setting [15], 91.8%; under setting [16], 95.7%; under setting [17], 92.4%; under setting [18], 63.5%. The viability, T/C by setting is: under setting [19], 111%; under setting [20], 96.8%; under setting [21], 103%; under setting [22], 89.8%; under setting [23], 84.7%; under setting [24], 64.9%. Further, the viability, T/C is 99.8% under setting [25]; 112% under setting [26]; 100% under setting [27]; 98.5% under setting [28]; 96.9% under setting [29]; 73.6% under setting [30]. The viability, T/C by setting is: under setting [31], 90.7%; under setting [32], 98%; under setting [33], 91.2%; under setting [34], 80.7%; under setting [35], 77%; under setting [36], 59.6%. Moreover, the viability, T/C reads like this: under setting [37], 70%; under setting [38], 60.7%; under setting [39], 57.4%; under setting [40], 48.4%; under setting [41], 43.6%; under setting [42], 31.5%.

As for `Cc1[nH]c2ccccc2c1CCNCc1ccc(/C=C/C(=O)NO)cc1`, the viability, T/C runs as follows: (compound 0.000999 µM) 101% and 103% and 95.3%; (compound 0.00316 µM) 90.3% and 84.7% and 95.6%; (compound 0.00999 µM) 96.9% and 70% and 80.2%; (compound 0.0316 µM) 96.4% and 54% and 57.8%; (compound 0.0999 µM) 101% and 27.6% and 35.7%. The pIC50 (curve of compound) is < 6.50 and 7.47 and 7.30.

Turning to `CC(C)n1c(=O)n(C)c2cnc3cc(F)c(-c4ccc(OCCCN5CCCCC5)nc4)cc3c21`, the viability, T/C runs as follows: (compound 0.0316 µM) 95.5% and 105% and 103%; (compound 0.1 µM) 92.9% and 102% and 101%; (compound 0.316 µM) 82.4% and 94.7% and 101%; (compound 1 µM) 91.1% and 106% and 92%; (compound 3.16 µM) 81.2% and 87.7% and 86.1%; (compound 10 µM) 61.1% and 71.2% and 64.3%. The pIC50 (curve of compound) was less than 5.00.

As to `O=c1[nH]cc(F)c(=O)[nH]1`, the viability, T/C is, setting by setting: (compound 0.0316 µM) 95.6% and 102% and 106%; (compound 0.1 µM) 105% and 100% and 94.9%; (compound 0.316 µM) 105% (2×) and 107%; (compound 1 µM) 98.4% and 114% and 99.3%; (compound 3.16 µM) 94.5% and 97.5% and 97.7%; (compound 10 µM) 97.2% and 97.8% and 93.8%. In addition, the pIC50 (curve of compound) was less than 5.00.

On to `CCc1c2c(nc3ccc(O)cc13)-c1cc3c(c(=O)n1C2)COC(=O)[C@]3(O)CC`, for which the viability, T/C is 62% and 58.6% and 64.2% (compound 0.000999 µM); 58% and 49.7% and 56.6% (compound 0.00316 µM); 51.5% and 50.8% and 46.9% (compound 0.00999 µM); 34.9% and 28.8% and 33.9% (compound 0.0316 µM); 19.2% and 15.7% and 20.2% (compound 0.0999 µM); 6.84% and 7.73% and 9.09% (compound 0.316 µM). Also, the pIC50 (curve of compound) is 7.98 and 8.17.
